Assay results taken from US20100204129A1, “USE OF A PEPTIDE AS A THERAPEUTIC AGENT” (priority 2008, published 2010).
Non-standard residues stand in square brackets, D forms with d. Residues, ends and D or L forms follow the SMILES beside them.

Legend:
A549 cells [1] = assay: Propidium iodide cell cycle assay; assay type: cell-based, human; conditions: peptide 10 micrograms per ml, 24 hours, FACS
From the text: Human A549 cells (carcinomic human alveolar basal epithelial cells) were utilized in the experiments employing the Propidium iodide cell cycle assay. The eukaryotic cell cycle is a series of events that take place in a cell leading to its replication. The regulation of the cell cycle involves steps crucial to the cell, including detecting and repairing genetic damage, and provision of various checks to prevent uncontrolled cell division. The molecular events that control the cell cycle are ordered and directional; that is, each process occurs in a sequential fashion. The cell cycle consists of four distinct phases: G1 phase, S phase, G2 phase (collectively known as interphase) and M phase. M phase is itself composed of two tightly coupled processes: mitosis, in which the cell's chromosomes are divided between the two daughter cells, and cytokinesis, in which the cell's cytoplasm divides forming distinct cells. Activation of each phase is dependent on the proper progression and completion of the previous one. Cells that have temporarily or reversibly stopped dividing are said to have entered a state of quiescence called Go phase. The relatively brief M phase consists of nuclear division and cytoplasmic division. The first phase within interphase, from the end of the previous M phase till the beginning of DNA synthesis is called G1 (G indicating gap or growth). During this phase the biosynthetic activities of the cell resume at a high rate. This phase is marked by synthesis of various enzymes that are required in S phase, mainly those needed for DNA replication. The ensuing S phase starts when DNA synthesis commences; when it is complete, all of the chromosomes have been replicated. The cell then enters the G2 phase, which lasts until the cell enters mitosis. Significant protein synthesis occurs during this phase, mainly involving the production of microtubules, which are required during the process of mitosis. […]
Propidium iodide is an intercalating agent and a fluorescent molecule that can be used to stain DNA. […] After incubation for 40 min at 37° C., cells were analyzed in the FACS.

[2] = test system: Human Peripheral Blood Mononuclear Cells (PBMC); assay: T cell proliferation assay (PHA, 3H-thymidine); assay type: cell-based; conditions: peptide 10 micrograms per ml, 3H-thymidine incorporation
Procedure: Human Peripheral Blood Mononuclear Cells (PBMC) were obtained from normal human donors. The T cell proliferation was induced by stimulation of the cells with the T cell mitogen phytohemagglutinin (PHA), either in the absence (positive proliferation control), or in the presence of test peptide—10 micrograms per ml—to examine their effects on the T cell proliferating response. 10^5/well PBMC were plated in 96-well microtiter plates and assayed in duplicate with the peptide. Cell cultures were incubated at 37° C. for 3 days in a 5% CO2 incubator and were thereafter pulsed with 1 microCi/well ^3H-thymidine for additional 12 hours of culture. At the end of incubation time, the plates were harvested and the cells counted by liquid scintillation for the incorporation of ^3H-thymidine as a measure of T cell proliferation.

A549 cells [3] = assay: Apoptosis induction assay (Annexin-5); assay type: cell-based, human; conditions: apoptosis induction in A549 cells, 24 hours exposure
From the text: Human A549 cells (carcinomic human alveolar basal epithelial cells) were utilized in the experiments employing the Annexin-5 apoptosis assay. Annexin-5 is a member of a highly conserved protein family that binds acidic phospholipids in a calcium-dependent manner. […] Phosphatidylserine is translocated from the inner side of the plasma membrane to the outer layer when cells undergo death by apoptosis or cell necrosis and serves as a signal by which cell destined for death are recognized by phagocytes. Test peptide—[…]—were exposed for 24 hours to the A549 cells before they were analyzed for signs of apoptosis.

spleen cells = assay: Th1/Th2 cytokine profiling assay (Ovalbumin restimulated spleen cells, CBA kit); assay type: cell-based, Balb/c mice; conditions: peptide 10 micrograms per ml; Ovalbumin 10 micrograms/ml restimulation; 72 hours
From the text: The Balb/c mice (originated in 1923, it is a popular strain and is used in many different research disciplines. Also classified as an inbred from the production of 20 or more successive brother-sister matings, the Balb/c mouse is albino and small in size) were immunized on Days 1, 15, and 29 with Ovalbumin (Ovalbumin is the main protein found in egg white, commonly used to stimulate an immunological reaction in test animals) in PBS (5 micrograms/injection). On day 50, spleens of the mice were harvested (3 weeks after last boost with Ovalbumin). Cells were cultured (2×10^5/well in triplicate) and incubated with culture medium or test peptide—10 micrograms per ml—for 30 min. Thereafter, additional Ovalbumin was added to the cells at 10 micrograms/ml for in vitro restimulation of the cells. 72 hours later, cell supernatants were harvested and assayed using the Becton Dickinson Mouse Th1/Th2 Cytokine CBA Kit. This kit can be used to measure Interleukin-2 (IL-2), Interleukin-4 (IL-4), Interleukin-5 (IL-5), Interferon-γ (IFN-γ), and Tumor Necrosis Factor-α (TNF-α) protein levels in a single sample. The kit performance has been optimized for analysis of physiologically relevant concentrations ([…] levels) of specific cytokine proteins in tissue culture supernatants and serum samples.

TNF alpha = TNF alpha production assay (LPS-stimulated macrophages, ELISA); assay type: cell-based, human; conditions: macrophages from PBMC, peptide 10 micrograms per ml, lipopolysaccharide 200 ng/ml, overnight
Procedure: Human Peripheral Blood Mononuclear Cells (PBMC) were obtained from normal human donors. The macrophages were prepared by adherence of PBMC to the plastic wells of the plates. After 8 days in culture in the presence of recombinant human macrophage-colony stimulating factor at 2 ng/ml, differentiated macrophages were preincubated with test peptide—10 micrograms per ml—for 30 min, followed by in-well stimulation by the addition of lipopolysaccharide at a final concentration of 200 ng/ml. Not stimulated macrophages served as negative background control.
After overnight incubation, supernatants from the control and LPS-stimulated cultures were harvested and assayed for TNF alpha production employing a TNF alpha specific ELISA.

in vitro = conditions: human
HCMV strain AD169 = assay: HCMV plaque reduction assay in MRC-5 cells; conditions: HCMV in MRC-5 cells; peptide 10 micrograms per ml; 7-10 days

CC(C)C[C@H](NC(=O)[C@H](CC(C)C)NC(=O)[C@@H](Cc1c[nH]c2ccccc12)NC(=O)[C@H](Cc1ccccc1)NC(=O)[C@@H](Cc1c[nH]c2ccccc12)NC(=O)[C@H](CCC(N)=O)NC(=O)[C@H](CCC(N)=O)NC(=O)[C@@H]1CCCN1C(=O)[C@H](CCCCN)NC(=O)[C@@H]1CCCN1C(=O)[C@@H](CCCNC(=N)N)NC(=O)[C@@H]1CCCN1C(=O)CNC(=O)[C@H](CC(C)C)NC(=O)[C@H](CC(C)C)NC(=O)[C@H](Cc1ccc(O)cc1)NC(=O)CNC(=O)[C@H](C)NC(=O)[C@H](CO)NC(=O)[C@H](CC(N)=O)NC(=O)[C@H](CC(C)C)NC(=O)[C@@H](NC(=O)[C@H](Cc1c[nH]c2ccccc12)NC(=O)CN)[C@@H](C)O)C(N)=O [Spantide-I, Gly-Trp-Thr-Leu-Asn-Ser-Ala-Gly-Tyr-Leu-Leu-Gly-Pro-D-Arg-Pro-Lys-Pro-Gln-Gln-D-Trp-Phe-D-Trp-Leu-Leu-NH2] (H-GWTLNSAGYLLGP[dR]PKPQQ[dW]F[dW]LL-NH2)
Cell cycle analysis G0/G1 (A549 cells [1]): 61.6
Cell cycle analysis G2/M (A549 cells [1]): 7.7
Cell cycle analysis S (A549 cells [1]): 30.7
% of PHA induced control [2]: 96.3%
% of induction (A549 cells [3]): 1.4%
IFNγ spleen cells; TH1 response (% of control) (spleen cells): 43.1 % of control
IL-2 spleen cells (% of control) (spleen cells): 25.9 % of control
IL-4 spleen cells; TH2 response (% of control) (spleen cells): 40.5 % of control
IL-5 spleen cells; TH2 response (% of control) (spleen cells): 64.5 % of control
TNF-a spleen cells; TH1 response (% of control) (spleen cells): 61.9 % of control
% of LPS induction (TNF alpha): 101.4%
viability at 144 h, 10 micrograms per ml (in vitro): 100%
% plaque reduction (HCMV strain AD169): 0.0%
